Measured values as given in patent US20080300243A1, “Amide Derivatives as Ion-Channel Ligands and Pharmaceutical Compositions and Methods of Using the Same” (priority 2005, published 2008).

Target: VR1 (Homo sapiens, UniProt Q8NER1)
Assay: Calcium uptake assay, low pH (proton) stimulus
Type: cell-based
Design: expressed in transfected cells; host or cells: T-REx HEK 293 (Invitrogen), pcDNA5/TO vector
Conditions: 0.3 μM compound, low pH agonist, HEK 293 cells expressing hVR1; for inhibition at 0.3 µM: HEK293, read-out: Low pH % Inhib. @ 0.3 μM

VR1, sequence (Q8NER1 whole entry): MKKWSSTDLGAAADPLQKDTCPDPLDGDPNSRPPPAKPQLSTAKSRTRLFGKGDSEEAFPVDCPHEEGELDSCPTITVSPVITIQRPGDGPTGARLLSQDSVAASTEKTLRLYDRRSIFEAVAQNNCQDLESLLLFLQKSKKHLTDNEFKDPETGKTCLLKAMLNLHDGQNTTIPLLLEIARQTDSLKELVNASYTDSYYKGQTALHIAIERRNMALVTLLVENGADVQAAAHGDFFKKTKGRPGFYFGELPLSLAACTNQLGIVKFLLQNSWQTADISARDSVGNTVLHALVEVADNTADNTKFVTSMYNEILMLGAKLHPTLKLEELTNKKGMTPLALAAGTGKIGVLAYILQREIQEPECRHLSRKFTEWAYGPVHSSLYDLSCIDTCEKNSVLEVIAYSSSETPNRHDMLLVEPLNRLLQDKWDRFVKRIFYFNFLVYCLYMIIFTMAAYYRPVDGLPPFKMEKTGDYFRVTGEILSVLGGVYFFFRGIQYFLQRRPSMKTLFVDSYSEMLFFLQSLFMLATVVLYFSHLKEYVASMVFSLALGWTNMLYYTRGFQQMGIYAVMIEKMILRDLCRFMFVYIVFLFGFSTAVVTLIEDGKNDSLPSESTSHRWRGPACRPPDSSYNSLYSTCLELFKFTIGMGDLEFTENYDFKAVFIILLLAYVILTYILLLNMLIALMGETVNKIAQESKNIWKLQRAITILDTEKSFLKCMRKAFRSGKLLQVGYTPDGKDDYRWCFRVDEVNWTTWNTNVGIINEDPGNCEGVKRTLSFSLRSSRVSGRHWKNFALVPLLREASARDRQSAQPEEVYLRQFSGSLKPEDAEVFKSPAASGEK

SMILES | Low pH % Inhib. @ 0.3 μM [%] | inhibition at 0.3 µM [%]
O=C(Nc1ccc2c(c1)OCC(CO)O2)c1ccc(/C=C/C(F)(F)F)cc1 (single isomer, unassigned) [Compound 108] | 116 | –
CC(C)(C)/C=C/c1ccc(C(=O)Nc2ccc3c(c2)OCCO3)cc1 [Compound 1] | – | 83
CC(C)/C=C/c1ccc(C(=O)Nc2ccc3c(c2)OCCO3)cc1 [Compound 8] | – | 26
CC(C)/C=C/c1ccc(C(=O)Nc2ccc3[nH]ccc3c2)cc1 [Compound 9] | – | 37
CC(C)/C=C/c1ccc(C(=O)Nc2ccc3ncccc3c2)cc1 [Compound 11] | – | 34
CC(C)/C=C/c1ccc(C(=O)Nc2ccc3c(c2)Cc2ccccc2-3)cc1 [Compound 13] | – | 11
C/C(=C/C(C)(C)C)c1ccc(C(=O)Nc2ccc3[nH]ccc3c2)cc1 [Compound 16] | – | 21
C/C(=C/C(C)(C)C)c1ccc(C(=O)Nc2ccc3ncccc3c2)cc1 [Compound 18] | – | 12
CCn1c2ccccc2c2cc(NC(=O)c3ccc(/C(C)=C\C(C)(C)C)cc3)ccc21 [Compound 19] | – | 14
CC(C)(C)C#Cc1ccc(C(=O)Nc2cccc3cnccc23)cn1 [Compound 23] | – | 98
CC(C)(C)C#Cc1ccc(C(=O)Nc2cnc3ccccc3c2)cc1 [Compound 24] | – | 101
Cn1ccc2cc(NC(=O)c3ccc(C#CC(C)(C)C)nc3)ccc21 [Compound 25] | – | 105
CC(C)(C)C#Cc1ccc(C(=O)Nc2ccc3c(c2)OCO3)cn1 [Compound 26] | – | 104
CC(C)(C)C#Cc1ccc(C(=O)Nc2ccc3c(c2)OCO3)cc1 [Compound 28] | – | 102
CC(C)(C)C#Cc1ccc(C(=O)Nc2ccc3c(c2)OCCO3)cc1 [Compound 30] | – | 105
CC(C)(C)C#Cc1ccc(C(=O)Nc2cnc3ccccc3c2)cc1 [Compound 32] | 101 | –
Cn1ccc2cc(NC(=O)c3ccc(C#CC(C)(C)C)cc3)ccc21 [Compound 33] | – | 105
Cn1ccc2cc(NC(=O)c3ccc(/C=C/C(F)(F)F)cc3)ccc21 [Compound 37] | – | 17
CC(C)(C)/C=C/c1ccc(C(=O)Nc2cccc3cnccc23)cc1 [Compound 40] | – | 86
CC(C)(C)/C=C/c1ccc(C(=O)Nc2cnc3ccccc3c2)cc1 [Compound 41] | – | 101
Cn1ccc2cc(NC(=O)c3ccc(/C=C/C(C)(C)C)cc3)ccc21 [Compound 42] | – | 98

SMILES | Low pH % Inhib. @ 0.3 μM [%] | inhibition at 0.3 µM [%]
O=C(Nc1ccc2c(c1)OCCO2)c1ccc(C#CC(F)(F)F)cc1 [Compound 43] | – | 105
Cn1ccc2ccc(NC(=O)c3ccc(C#CC(C)(C)C)nc3)cc21 [Compound 44] | – | 87
O=C(Nc1cnc2ccccc2c1)c1ccc(C#CC2CC2)cc1 [Compound 47] | – | 55
O=C(Nc1ccc2c(c1)OCCO2)c1ccc(C#CC2CC2)cc1 [Compound 49] | – | 96
CC(C)(C)C#Cc1ccc(C(=O)Nc2ccc3c(c2)OC(F)(F)O3)cc1 [Compound 50] | – | 5
Cc1nc2cc(NC(=O)c3ccc(/C=C/C(F)(F)F)cc3)ccc2s1 [Compound 53] | – | 81
O=C(Nc1ccc2sc(CO)nc2c1)c1ccc(C#CC(F)(F)F)cc1 [Compound 54] | – | 76
O=C(Nc1ccc2sc(CO)nc2c1)c1ccc(/C=C/C(F)(F)F)cc1 [Compound 55] | – | 101
Cc1nc2cc(NC(=O)c3ccc(C#CC(C)(C)C)cc3)ccc2s1 [Compound 56] | – | 104
CC(C)(C)C#Cc1ccc(C(=O)Nc2cccc3cnccc23)c(Cl)n1 [Compound 66] | – | 10
CC(C)(C)C#Cc1ccc(C(=O)Nc2ccc3c(c2)N(CCN2CCOCC2)CC3(C)C)cc1 [Compound 67] | – | 8
CC(=O)N1CC(C)(C)c2ccc(NC(=O)c3ccc(C#CC(C)(C)C)cc3)cc21 [Compound 68] | – | 140
CC(C)(C)C#Cc1ccc(C(=O)Nc2ccc3c(c2)NCC3(C)C)cc1 [Compound 69] | – | 103
O=C(Nc1ccc2c(c1)OCCN2)c1ccc(C#CC(F)(F)F)cc1 [Compound 70] | – | 185
CC1(C)Oc2cc(NC(=O)c3ccc(/C=C/C(F)(F)F)cc3)ccc2NC1=O [Compound 71] | – | 10
CC1(C)CNc2ccc(NC(=O)c3ccc(/C=C/C(F)(F)F)cc3)cc2O1 [Compound 72] | – | 124
CN1CCOc2cc(NC(=O)c3ccc(/C=C/C(F)(F)F)cc3)ccc21 [Compound 73] | – | 94
Cc1cc(C(=O)Nc2cccc3cnccc23)ccc1C#CC(F)(F)F [Compound 75] | – | 102
CC(=CC(F)(F)F)c1ccc(C(=O)Nc2cccc3cnccc23)cc1 [Compound 76] | – | 88
Cc1cc(/C=C/C(F)(F)F)ccc1C(=O)Nc1cccc2cnccc12 [Compound 77] | – | 90
CN1C(=O)C(C)(C)Oc2ccc(NC(=O)c3ccc(/C=C/C(F)(F)F)cc3)cc21 [Compound 78] | – | 32

SMILES | Low pH % Inhib. @ 0.3 μM [%] | inhibition at 0.3 µM [%]
CN1CCCc2ccc(NC(=O)c3ccc(C#CC4CC4)cc3)cc21 [Compound 80] | – | 92
CC(C)(C)C#Cc1ccc(C(=O)Nc2ccc3c(c2)OCC(CO)O3)cc1 (stereo not shown) [Compound 81] | – | 98
CC(C)(C)C#Cc1ccc(C(=O)Nc2ccc3c(c2)OC(CO)CO3)cc1 (stereo not shown) [Compound 82] | – | 76
CN1C(=O)COc2ccc(NC(=O)c3ccc(/C=C/C(F)(F)F)cc3)cc21 [Compound 84] | – | 45
CN1CCCc2ccc(NC(=O)c3ccc(C#CC(C)(C)C)nc3)cc21 [Compound 85] | – | 34
O=C(Nc1ccc2c(c1)OC(CO)CO2)c1ccc(C#CC2CC2)cc1 (stereo not shown) [Compound 86] | – | 83
O=C(Nc1ccc2c(c1)OCC(CO)O2)c1ccc(C#CC2CC2)cc1 (stereo not shown) [Compound 87] | – | 98
CN1CCOc2ccc(NC(=O)c3ccc(/C=C/C(F)(F)F)cc3)cc21 [Compound 88] | – | 48
CC(C)(C)C#Cc1ccc(C(=O)Nc2cccc3cnccc23)nc1 [Compound 91] | – | 21
O=C(Nc1ccc2c(c1)S(=O)(=O)C=C2)c1ccc(/C=C/C(F)(F)F)cc1 [Compound 92] | – | 71
O=C(Nc1ccc2c(c1)OCC(CO)O2)c1ccc(/C=C/C(F)(F)F)cc1 (stereo not shown) [Compound 97] | – | 101
CN1CCCc2ccc(NC(=O)c3ccc(C#CC4CCCC4)cc3)cc21 [Compound 98] | – | 78
C/C(=C\C(F)(F)F)c1ccc(C(=O)Nc2ccc3c(c2)OCCO3)cc1 [Compound 99] | – | 94
O=C(Nc1ccc2c(c1)OCCO2)c1ccc(C#CC2CCCC2)cc1 [Compound 100] | – | 42
O=C(Nc1cccc2cnccc12)c1ccc(C#CC2CCCC2)cc1 [Compound 101] | – | 94
C/C(=C\c1ccc(C(=O)Nc2ccc3c(c2)OCCO3)cc1)C(F)(F)F [Compound 102] | – | 91
O=C(Nc1ccc2c(c1)NCCO2)c1ccc(C#CC2CCCC2)cc1 [Compound 106] | – | 5
CC(C)(O)COc1cc(C(=O)Nc2ccc3c(c2)OCCO3)ccc1C#CC1CC1 [Compound 110] | – | 1
CC1=Cc2c(cccc2NC(=O)c2ccc(/C=C/C(F)(F)F)cc2)NN1 [Compound 113] | – | 9
Cc1cc2c(NC(=O)c3ccc(/C=C/C(F)(F)F)cc3)cccc2cn1 [Compound 114] | – | 90
O=C(Nc1ccc2nccnc2c1)c1ccc(/C=C/C(F)(F)F)cc1 [Compound 115] | – | 90

SMILES | Low pH % Inhib. @ 0.3 μM [%] | inhibition at 0.3 µM [%]
CS(=O)(=O)OCC1COc2cc(NC(=O)c3ccc(C#CC4CCCC4)cc3)ccc2O1 (stereo not shown) [Compound 116] | 10 | –
O=C(Nc1ccc2c(c1)OCCN2)c1ccc(C#CC2CCCC2)cc1 [Compound 117] | – | 98
COc1cc(/C=C\C(F)(F)F)ccc1C(=O)Nc1ccc2c(c1)OCCN2 [Compound 120] | – | 19
COc1cc(/C=C\C(F)(F)F)ccc1C(=O)Nc1ccc2c(c1)OCCO2 [Compound 121] | – | 19
COc1cc(C#CC(C)(C)C)ccc1C(=O)Nc1ccc2c(c1)OCCN2 [Compound 128] | – | 12
O=C(Nc1ccc2c(c1)OCCN2)c1c(F)cc(C#CC2CC2)cc1F [Compound 130] | – | 104
O=C(Nc1ccc2c(c1)OCCN2)c1ccc(/C=C\C(F)(F)F)cc1F [Compound 135] | – | 29
O=C(Nc1cc2c(cc1Cl)NCCO2)c1ccc(/C=C/C(F)(F)F)cc1 [Compound 136] | – | 50
CC(C)(C)C#Cc1ccc(C(=O)Nc2ccc3c(c2)OCCN3)c(F)c1 [Compound 137] | – | 103
Cc1cc(C#CC2CCCC2)ccc1C(=O)Nc1ccc2c(c1)OCCN2 [Compound 139] | – | 95
Cc1cc(C#CC2CCCC2)ccc1C(=O)Nc1ccc2c(c1)OCCO2 [Compound 140] | – | 33
Cc1cc(C#CC2CCCC2)ccc1C(=O)Nc1ccc2c(c1)OCC(CO)O2 (stereo not shown) [Compound 141] | – | 87
O=C(Nc1ccc2c(c1)OCCO2)c1ccc(/C=C/C(F)(F)F)cc1F [Compound 142] | – | 70
O=C(Nc1ccc2c(c1)OCCN2)c1ccc(C#CC2CC2)cc1F [Compound 143] | – | 100
O=C(Nc1ccc2c(c1)OCCO2)c1ccc(C#CC2CC2)cc1F [Compound 145] | – | 41
CC(C)(C)C#Cc1ccc(C(=O)Nc2ccc3c(c2)OCCN3)c(Cl)c1 [Compound 146] | – | 93
O=C(Nc1ccc2c(c1)OCCN2)c1ccc(C#CC2CC2)cc1Cl [Compound 147] | – | 88
O=C(Nc1ccc2c(c1)OCCN2)c1ccc(/C=C/C(F)(F)F)cc1Cl [Compound 148] | – | 104
O=C(Nc1ccc2c(c1)OCC(CO)O2)c1ccc(/C=C/C(F)(F)F)cc1F (stereo not shown) [Compound 149] | – | 71
